# Reference: patent publication US20230081679A1, “SURFACTANT VESICLES FOR VACCINE FORMULATION, TARGETED DRUG DELIVERY, AND TRANSFECTION” (University of Maryland, College Park, priority 2021, published 2023)
# Values joined by “and” are separate entries in the source; they are usually repeats but may differ in a detail not shown here. Equal entries are not always repeated. Where two headings read alike, the source gives them in different places. {BHQ2} = Black Hole Quencher 2; {FAM} = fluorescein
# Columns and labels:
# [1] = for Second Order Rate Constant k’: 60:40 w/w SDBS:CTAT, 1% w/w total surfactant
# Procedure: To assess the rate of encapsulated substrate release, dialysis was initially considered. […] The assay was to remove aliquots from SVs-encapsulated formulations at time intervals and re-purify the aliquot by size-exclusion chromatography (SEC). Vesicle fractions elute in the initial fractions while release carbohydrate is retained on the column and elutes in the later fractions. The quantity of carbohydrate released was determined by ^1H-NMR (FIG. 28).
# Using the SEC method, the initial rate of glucose release was analyzed for vesicle encapsulated glucose solutions at varying concentrations. […] Therefore, a simple model with first-order release kinetics across the vesicle membrane (Eq. 1) was used, from which the rate law (Eq. 2) can be derived, where [Sugar]in and [Sugar]out are the sugar concentrations inside and outside the vesicle, respectively.
# The release for each vesicle-encapsulated sugar preparation was monitored for at least two half-lives (monosaccharides) and at least one half-life (disaccharides and maltotriose). The release profile for each substrate was then fit to Eq. 3 by a least squares method, and the first order rate constant k1 was calculated. The reported uncertainties represent the standard deviation in the measured k1 of three separate batches of vesicle-encapsulated sugar.
# The t1/2 was calculated from each k1, and the permeability coefficient (P) was calculated using k1 and the vesicle size (from DLS experiments) according to: […]
# [2] = Vesicle radius and PDI by DLS
# Procedure: To measure the average size of the vesicles, 100 μL of the solution was taken and diluted to 1 mL with water and analyzed using dynamic light scattering (DLS).
# [3] = Encapsulation in catanionic SVs (gel filtration, then NMR or ICP-AES); assay type: physicochemical
# Procedure: Vesicles were formed in the presence of several different sugars, purified by gel filtration, and the encapsulated sugar concentration measured by NMR (Table 3).
# Table 6 summarizes the EE and drug concentration achieved with each of the chemotherapeutic agents under the standard SDBS-rich SVs formulation method.
# The gel was flushed with two column-volumes of PBS 1×. Next, 1.0 mL of crude vesicle suspension was loaded onto the column and gravity fed into the gel. 2.0 mL of PBS 1× eluent was then added to the column and the fractions discarded. 1.5 mL of PBS 1× was then added to the column and the fractions collected to yield purified opaque light blue vesicles. The column was cleaned with 2.0 mL of 0.1% Triton X-100 in water followed by two column volumes of PBS 1×.
# [4] = as above; assay type: physicochemical; details: empty SVs incubated in 4 mM D-maltose solution for three weeks
# MDA-MB-231 = assay: Empty vesicles vs. DOX-vesicles on cell lines; assay type: cell-based; details: MDA-MB-231 human breast cancer
# Excerpt: (§1) Empty vesicles vs. DOX-vesicles. 3 cell lines: MDA-MB-231: human breast cancer; MCF-7: human breast cancer; A549: non-small cell lung cancer.
# A549 = assay: Empty vesicles vs. DOX-vesicles on cell lines; assay type: cell-based; details: Homo sapiens; A549 non-small cell lung cancer
# Excerpt: as §1
# [5] = cited from earlier work
# DNase I = DNase I Protection Assay; details: 25° C. or 37° C., intact vesicles
# Procedure: FIG. 10. […] Vesicle-incorporated fluorescently-quenched 20 bp DNA duplexes were subjected to DNase I cleavage at 25° C. (A) or 37° C. (B) before (intact) and after (broken) freeze/thaw cycles to promote vesicle rupturing. […] Variation in overall fluorescent intensity in the ruptured samples reflect the variability in vesicle rupture and reformation during the freeze/thaw process.
# DNase I Protection Assay: Intact DNA duplex loaded vesicles were added to reaction buffer containing 2.5 mM magnesium chloride, 0.5 mM calcium chloride, and 1× PBS. DNase I (Thermo Fisher Scientific, Waltham, Mass.) was added to a final concentration of 0.005 U/μL and the reaction was monitored by fluorescence (excitation at 494 nm, emission 521 nm) collected on SpectraMax M5 Microplate Reader (Molecular Devices, San Jose, Calif.) over 3 h at 25° C. or 37° C. Broken vesicles were prepared by 3 freeze thaw cycles of 10 min at −80° C. and 2 min at RT. Following the freeze thaw procedure, the samples equilibrated at RT for 30 min and were used in the assay as described above.
# [6] = saline at 37° C.; cited from earlier work
# [7] = Conversion of carboplatin in PBS 1×; assay type: physicochemical; details: 40 mM in PBS 1×, 48 h, room temperature
# [8] = Drug pKa and solubility in buffer; assay type: physicochemical
# [9] = 25° C., PBS 1× pH 7.4, 60:40 w/w SDBS rich vesicles, 500 mM sugar
# [10] = sugar vesicles, 500 mM sugar, PBS 1×, after 24 h
# [11] = sugar vesicles, deionized water instead of PBS 1×, after 24 h
# [12] = 500 mM sugar, deionized water instead of PBS 1×
# [13] = prepared in 500 mM sugar, PBS 1×
# [14] = drug release from catanionic SVs, PBS 1×
# [15] = chemotherapeutic drugs in SDBS-rich SVs, PBS 1×
# [16] = sugar vesicles, 100 mM glucosamine, PBS 1×, after 24 h
# [17] = 100 mM glucosamine instead of 500 mM, PBS 1×
# [18] = sugar vesicles, 250 mM cellobiose, PBS 1×, after 24 h
# [19] = 250 mM cellobiose instead of 500 mM, PBS 1×
compound,measurement,setting,value
O=C[C@H](O)[C@@H](O)[C@H](O)[C@H](O)CO [D-glucose],First Order Rate Constant k,[1]; [9],0.12 ± 0.03 h⁻¹
same,First Order Rate Constant k,"[1]; 25° C., in water instead of PBS 1×, 500 mM sugar",0.12 ± 0.05 h⁻¹
same,slope of ln starting concentration vs ln initial release rate,"[1]; vesicles prepared in 0.1, 0.2 and 0.5 M glucose",1.1±0.2
same,Vesicle PDI,[2]; [10],0.17
same,Vesicle Radius (nm),[2]; [10],75 nm
same,Vesicle PDI,[2]; [11],0.40
same,Vesicle Radius (nm),[2]; [11],178 nm
same,EE (%),[3]; [12],0.67%
same,"[Sugar], mM (in purified vesicles)",[3]; [12],2 ± 1 mM
same,EE (%),[3]; [13],1.1%
same,"[Sugar], mM (in purified vesicles)",[3]; [13],3.7 ± 0.8 mM
same,EE,[3]; vesicles prepared in 0.1 M glucose,1.9%
O=C[C@@H](O)[C@@H](O)[C@H](O)[C@H](O)CO [D-mannose],First Order Rate Constant k,[1]; [9],0.26 ± 0.06 h⁻¹
same,Vesicle PDI,[2]; [10],0.18
same,Vesicle Radius (nm),[2]; [10],74 nm
same,EE (%),[3]; [13],0.87%
same,"[Sugar], mM (in purified vesicles)",[3]; [13],2.9 ± 0.2 mM
"N.N.[Cl][Pt][Cl] [Cisplatin, cisplatin]",First Order Rate Constant k,[1]; [14],0.78 ± 0.06 h⁻¹
same,Vesicle PDI,[2]; drug-loaded catanionic SVs,0.16
same,Vesicle Radius (nm),[2]; drug-loaded catanionic SVs,76 nm
same,EE (%),[3]; [15],2.1%
same,"[Drug], mM (in purified vesicles)",[3]; [15],0.05 ± 0.01 mM
maltotriose,Second Order Rate Constant k’,"[1]; 25° C., PBS 1×",0.00211 ± 0.00022 M⁻¹ s⁻¹
same,Vesicle PDI,[2]; [10],0.13
same,Vesicle Radius (nm),[2]; [10],95 nm
same,EE (%),[3]; [13],0.65%
same,"[Sugar], mM (in purified vesicles)",[3]; [13],2.2 ± 0.2 mM
OC[C@H]1O[C@H](O[C@H]2[C@H](O)[C@@H](O)[C@H](O)O[C@@H]2CO)[C@H](O)[C@@H](O)[C@@H]1O [D-maltose],Second Order Rate Constant k’,"[1]; 25° C., PBS 1×",0.000333 ± 8.3e-05 M⁻¹ s⁻¹
same,Second Order Rate Constant k’,"[1]; 25° C., PBS 1×, listed as Maltose",0.000333 ± 8.3e-05 M⁻¹ s⁻¹
same,Vesicle PDI,[2]; [10],0.13
same,Vesicle Radius (nm),[2]; [10],80 nm
same,EE (%),[3]; [13],1.2%
same,"[Sugar], mM (in purified vesicles)",[3]; [13],4.1 ± 0.3 mM
same,EE,[4],5%
same,maltose trapped by vesicles,[4],0.2 mM
OC[C@H]1O[C@@](CO)(O[C@H]2O[C@H](CO)[C@@H](O)[C@H](O)[C@H]2O)[C@@H](O)[C@@H]1O [D-sucrose],Second Order Rate Constant k’,"[1]; 25° C., PBS 1×",0.00186 ± 0.00011 M⁻¹ s⁻¹
same,fold faster leakage than maltose,[1]; second order release from SVs,5.6 fold
same,Vesicle PDI,[2]; [10],0.12
same,Vesicle Radius (nm),[2]; [10],82 nm
same,EE (%),[3]; [13],0.86%
same,"[Sugar], mM (in purified vesicles)",[3]; [13],3.2 ± 0.4 mM
O=S(=O)(O)N[C@H]1C(O)O[C@H](CO)[C@@H](O)[C@@H]1O (stereo partly drawn) [D-glucosamine-2-sulfate],First Order Rate Constant k,[1]; [9],0.29 ± 0.06 h⁻¹
same,Vesicle PDI,[2]; [10],0.06
same,Vesicle Radius (nm),[2]; [10],69 nm
same,EE (%),[3]; [13],1.0%
same,"[Sugar], mM (in purified vesicles)",[3]; [13],3.3 ± 0.7 mM
"COc1cccc2c1C(=O)c1c(O)c3c(c(O)c1C2=O)C[C@@](O)(C(=O)CO)C[C@@H]3O[C@H]1C[C@H](N)[C@H](O)[C@H](C)O1 [Doxorubicin, doxorubicin]",release from vesicles after 11 days,"[1]; within detection limits, after 11 days",no release
same,IC50,MDA-MB-231,0.06 µg/mL
same,IC50,A549,0.02 µg/mL
same,Vesicle PDI,[2]; drug-loaded catanionic SVs,0.25
same,Vesicle Radius (nm),[2]; drug-loaded catanionic SVs,91 nm
same,pKa,[5],8.4
same,EE (%),[3]; [15],61%
same,"[Drug], mM (in purified vesicles)",[3]; [15],0.15 ± 0.02 mM
same,EE (%),"[3]; chemotherapeutic drugs in SDBS-rich SVs, PBS 1×, listed as doxorubicin",60% and 61%
O=C[C@H](O)[C@@H](O)[C@@H](O)[C@H](O)CO [D-galactose],First Order Rate Constant k,[1]; [9],0.16 ± 0.02 h⁻¹
same,Vesicle PDI,[2]; [10],0.20
same,Vesicle Radius (nm),[2]; [10],83 nm
same,EE (%),[3]; [13],0.82%
same,"[Sugar], mM (in purified vesicles)",[3]; [13],2.7 ± 0.7 mM
"20 bp DNA duplexes: fluorescently-quenched 20 bp DNA duplexes (SEQ ID NO:3 and 4), vesicle-incorporated (chain 1 ACCCTACGTATCGGTCAGTC; chain 2 GACTGACCGATACGTAGGGT; chain 1: DNA, 3' {FAM}, backbone and methylation of C not given here; chain 2: DNA, 5' {BHQ2}, backbone and methylation of C not given here)","protection from DNase I cleavage, vesicle-incorporated",DNase I,protected from nuclease digestion
"N.N.O=C([O-])C1(C(=O)[O-])CCC1.[Pt+2] [Carboplatin, carboplatin]",leaked out of the vesicles,[1]; at the 48 h mark,over 50%
same,First Order Rate Constant k,[1]; [14],0.039 ± 0.004 h⁻¹
same,fold slower release than cisplatin,[1]; release from SVs,20 fold
same,fold slower release than glucose,[1]; release from SVs,3 fold
same,Vesicle PDI,[2]; drug-loaded catanionic SVs,0.19
same,Vesicle Radius (nm),[2]; drug-loaded catanionic SVs,74 nm
same,EE (%),[3]; [15],1.9%
same,"[Drug], mM (in purified vesicles)",[3]; [15],0.5 ± 0.1 mM
same,kobs of ligand exchange,[6],7.7e-07 s⁻¹
same,t1/2 of ligand exchange,[6],≈ 10 days
same,converted to cisplatin,[7],2%
same,remained unreacted,[7],93%
same,solubility (concentration in buffer),[8],40 mM
N[C@H]1C(O)O[C@H](CO)[C@@H](O)[C@@H]1O (stereo partly drawn) [D-glucosamine],First Order Rate Constant k,"[1]; 25° C., PBS 1× pH 7.4, 100 mM sugar concentration",0.11 ± 0.01 h⁻¹
same,Vesicle PDI,[2]; [16],0.23
same,Vesicle Radius (nm),[2]; [16],78 nm
same,EE (%),[3]; [17],3.5%
same,"[Sugar], mM (in purified vesicles)",[3]; [17],2.3 ± 0.2 mM
COC1OC(CO)C(O)C(O)C1O [α-D-methylglucoside],First Order Rate Constant k,[1]; [9],3.7 ± 0.5 h⁻¹
same,Vesicle PDI,[2]; [10],0.19
same,Vesicle Radius (nm),[2]; [10],75 nm
same,EE (%),[3]; [13],0.17%
same,"[Sugar], mM (in purified vesicles)",[3]; [13],0.6 ± 0.2 mM
OC[C@H]1O[C@@H](O[C@H]2[C@H](O)[C@@H](O)[C@H](O)O[C@@H]2CO)[C@H](O)[C@@H](O)[C@@H]1O [D-cellobiose],Second Order Rate Constant k’,"[1]; 25° C., PBS 1×",0.000722 ± 0.00014 M⁻¹ s⁻¹
same,Vesicle PDI,[2]; [18],0.15
same,Vesicle Radius (nm),[2]; [18],90 nm
same,EE (%),[3]; [19],1.2%
same,"[Sugar], mM (in purified vesicles)",[3]; [19],2.0 ± 0.4 mM
"Nc1nc2[nH]cc(CCc3ccc(C(=O)N[C@@H](CCC(=O)O)C(=O)O)cc3)c2c(=O)[nH]1 [Pemetrexed, pemetrexed]",Half-life t1/2,[1],47 ± 4 h
same,First Order Rate Constant k,[1]; [14],0.015 ± 0.001 h⁻¹
same,Vesicle PDI,[2]; drug-loaded catanionic SVs,0.17
same,Vesicle Radius (nm),[2]; drug-loaded catanionic SVs,73 nm
same,EE (%),[3]; [15],0.80%
same,"[Drug], mM (in purified vesicles)",[3]; [15],0.45 ± 0.09 mM
O=C[C@H](O)[C@H](O)[C@H](O)CO [D-ribose],Vesicle PDI,[2]; [10],0.20
same,Vesicle Radius (nm),[2]; [10],72 nm
same,EE (%),[3]; [13],0.084%
same,"[Sugar], mM (in purified vesicles)",[3]; [13],0.28 ± 0.02 mM
